Values quoted from earlier work as cited in US11219662B2, “Methods for treating hypotension in a patient that has received an ACE inhibitor by administering angiotensin II” (La Jolla Pharma, LLC, priority 2016, dated 2022).

Conditions: no experiment described

| Molecule | activity compared with angiotensin II (qualitative background statement) | activity relative to the activity of angiotensin II (of the activity of angiotensin II, background statement) |
| --- | --- | --- |
| CC[C@H](C)[C@H](NC(=O)[C@H](Cc1ccc(O)cc1)NC(=O)[C@@H](N)C(C)C)C(=O)N[C@@H](Cc1cnc[nH]1)C(=O)N1CCC[C@H]1C(=O)N[C@@H](Cc1ccccc1)C(=O)O [Angiotensin IV, Val-Tyr-Ile-His-Pro-Phe] | less activity than angiotensin II |  |
| Arg-Val-Tyr-Ile-His-Pro-Phe (RVYIHPF; printed: Arg-Val-Tyr-Ile-His-Pro-Phe) [Angiotensin III] |  | approximately 40% |
